Results reported in paper PMC8856595 (2021).

Legend:
Assay in all cases: ITC
[1] = tested on: aptananozyme X: 5'-amino-TBA (6) on Cu2+ C-dots (DNA, aptamer) TGTGGTGTGTGAGTGCGGTGCCC; conditions: 100 mM NaCl, 5 mM MgCl2, 50 mM phosphate, pH 7.2, Figure S16 legend: 50 mM NaCl, 10 mM MgCl2
[2] = tested on: aptananozyme XIV: 5'-amino-(TGTA)3-TBA (10) on Cu2+ C-dots (DNA, aptamer) TGTATGTATGTATGTGGTGTGTGAGTGCGGTGCCC; conditions: 100 mM NaCl, 5 mM MgCl2, 50 mM phosphate, pH 7.2, Figure S16 legend: 50 mM NaCl, 10 mM MgCl2
[3] = tested on: aptananozyme XIII: 5'-amino-(TGTA)2-TBA (9) on Cu2+ C-dots (DNA, aptamer) TGTATGTATGTGGTGTGTGAGTGCGGTGCCC; conditions: 100 mM NaCl, 5 mM MgCl2, 50 mM phosphate, pH 7.2, Figure S16 legend: 50 mM NaCl, 10 mM MgCl2
[4] = tested on: aptananozyme XII: 5'-amino-(TGTA)-TBA (8) on Cu2+ C-dots (DNA, aptamer) TGTATGTGGTGTGTGAGTGCGGTGCCC; conditions: 100 mM NaCl, 5 mM MgCl2, 50 mM phosphate, pH 7.2, Figure S16 legend: 50 mM NaCl, 10 mM MgCl2
[5] = tested on: aptananozyme XI: 3'-amino-TBA (7) on Cu2+ C-dots (DNA, aptamer) TGTGGTGTGTGAGTGCGGTGCCC; conditions: 100 mM NaCl, 5 mM MgCl2, 50 mM phosphate, pH 7.2, Figure S16 legend: 50 mM NaCl, 10 mM MgCl2
[6] = tested on: aptananozyme V: 5'-amino-(TGTA)3-DBA (5) on Cu2+ C-dots (DNA, aptamer) TGTATGTATGTACGACGCCAGTTTGAAGGTTCGTTCGCAGGTGTGGAGTGACGTCG; conditions: 100 mM NaCl, 5 mM MgCl2, 5 mM MES, pH 5.5
[7] = tested on: aptananozyme I: 5'-amino-DBA (1) on Cu2+ C-dots (DNA, aptamer) CGACGCCAGTTTGAAGGTTCGTTCGCAGGTGTGGAGTGACGTCG; conditions: 100 mM NaCl, 5 mM MgCl2, 5 mM MES, pH 5.5; for Kd: printed as 'the aptamer', methods: aptananozyme
[8] = tested on: aptananozyme II: 3'-amino-DBA (2) on Cu2+ C-dots (DNA, aptamer) CGACGCCAGTTTGAAGGTTCGTTCGCAGGTGTGGAGTGACGTCG; conditions: 100 mM NaCl, 5 mM MgCl2, 5 mM MES, pH 5.5
[9] = tested on: aptananozyme IV: 5'-amino-(TGTA)2-DBA (4) on Cu2+ C-dots (DNA, aptamer) TGTATGTACGACGCCAGTTTGAAGGTTCGTTCGCAGGTGTGGAGTGACGTCG; conditions: 100 mM NaCl, 5 mM MgCl2, 5 mM MES, pH 5.5
[10] = tested on: aptananozyme III: 5'-amino-(TGTA)-DBA (3) on Cu2+ C-dots (DNA, aptamer) TGTACGACGCCAGTTTGAAGGTTCGTTCGCAGGTGTGGAGTGACGTCG; conditions: 100 mM NaCl, 5 mM MgCl2, 5 mM MES, pH 5.5

NC(=O)[C@@H](N)Cc1ccc(O)cc1
Kd [1]: 0.83 ± 0.01 µM | Kd [2]: 1.4 ± 0.1 µM | binding [3]: yes | binding [4]: yes | Kd [5]: 1.24 ± 0.05 µM

NCCc1ccc(O)c(O)c1
Kd [6]: 3.9 ± 0.2 µM | binding ([7]; aptamer on Cu2+ C-dots): yes | binding [8]: yes | binding [9]: yes | binding [10]: yes

N[C@@H](Cc1ccc(O)c(O)c1)C(=O)O
Kd [7]: 1.7 ± 0.4 µM

N[C@H](Cc1ccc(O)c(O)c1)C(=O)O
Kd [7]: 6.6 ± 1 µM
